In ChEMBL document CHEMBL1136602 (Bioorg Med Chem Lett, 2003) one finds Ki and AD50 data, which are given here for nine compounds.

The target in one assay is Sigma 2 receptor. The assay can be described thus: Binding affinity towards Sigma-2 receptor.
Assay [1] relates to Mus musculus. The assay can be described thus: Anticocaine activity was assessed through attenuation of convulsions caused by the intraperitoneal administration of cocaine 60 mg/kg in mice. In kind it is functional.
Assay [2] concerns the target Sigma non-opioid intracellular receptor 1 (Homo sapiens, UniProt Q99720). Briefly: Binding affinity towards Sigma-1 receptor.
Assay [3] has as its system Mus musculus. The assay can be described thus: Anticocaine activity was assessed through attenuation of convulsions caused by the intraperitoneal administration of cocaine 60 mg/kg in mice; Agonist activity exacerbated the convulsive effects of cocaine. It is filed as functional, organism-based. Details: dose 60 mg/kg. Conditions: filed as agonist.

Sequence of Sigma non-opioid intracellular receptor 1 (Q99720 whole entry): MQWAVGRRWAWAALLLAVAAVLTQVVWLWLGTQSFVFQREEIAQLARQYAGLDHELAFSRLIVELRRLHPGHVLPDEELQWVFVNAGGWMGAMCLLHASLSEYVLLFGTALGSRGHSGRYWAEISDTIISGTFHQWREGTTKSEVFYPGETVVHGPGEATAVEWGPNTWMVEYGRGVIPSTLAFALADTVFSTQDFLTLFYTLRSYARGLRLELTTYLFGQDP

One may read the Ki as the dissociation constant of the complex between target and ligand, obtained from inhibition or displacement. A high value points to lower affinity. `CN(CCc1ccc(Cl)c(Cl)c1)CCN1CCCC1`: the Ki on Sigma 2 receptor is 8 nM. This compound also came in with an AD50 in the assay with Mus musculus [1] of 2 mg/kg.

On to `Clc1ccc(CN2CCN(Cc3ccccc3)CC2)c(Cl)c1`, for which the inhibition constant Ki in assay [2] was determined as 7.6 nM; on Sigma 2 receptor, 123 nM. The compound further came in with an AD50 with Mus musculus [1] of 16 mg/kg.

For `c1ccc(CN2CCN(Cc3ccccc3)CC2)cc1`, on Sigma 2 receptor, the affinity corresponds to a Ki of 1270 nM. In the assay with Mus musculus [1], this compound yielded an AD50 of 23 mg/kg.

In the case of `Clc1cccc(CN2CCN(Cc3ccccc3)CC2)c1`, the Ki came out at 0.46 nM in assay [2] and 56.4 nM at Sigma 2 receptor. In the assay with Mus musculus [1], this compound displayed an AD50 of 8 mg/kg.

For the compound `Clc1ccc(CN2CCN(Cc3ccccc3)CC2)cc1Cl`, the values for the inhibitory constant (Ki) (in assay [2]; on Sigma 2 receptor) were 0.58 nM and 7.54 nM, respectively. The AD50 result in the assay on Mus musculus [3] is “Agonist activity exacerbated the convulsive effects of cocaine”.

As to `COc1ccc(CN2CCN(Cc3ccccc3)CC2)cc1`, the figures for the Ki (in assay [2]; on Sigma 2 receptor) were 0.47 nM and 161 nM, respectively. In addition, the AD50 in the assay with Mus musculus [1] came to 27 mg/kg.

Take `COc1cccc(CN2CCN(Cc3ccccc3)CC2)c1`: the Ki was 0.39 nM in assay [2] and 108 nM at Sigma 2 receptor. Further, the AD50 in the assay on Mus musculus [1] is 17 mg/kg.

For the compound `Clc1ccc(CN2CCN(Cc3ccccc3)CC2)cc1`, the figures for the Ki (in assay [2]; at Sigma 2 receptor) were 1.4 nM and 187 nM, respectively. Besides, the AD50 in the assay with Mus musculus [1] came to 29 mg/kg.

With `Clc1ccccc1CN1CCN(Cc2ccccc2)CC1`, the results for the Ki (in assay [2]; on Sigma 2 receptor) were 5.3 nM and 527 nM, respectively. In the assay on Mus musculus [1], this compound registered an AD50 of 15 mg/kg.
